The source of these data is article PMC10216581, “Homogeneous, Synthetic, Non-Saccharide Glycosaminoglycan Mimetics as Potent Inhibitors of Human Cathepsin G” (Biomolecules, 2023).

Holding throughout (assay type): biochemical
In assay [1] the test system is human plasma. The experiment in a line: Activated partial thromboplastin time (aPTT) clotting assay. To be noted: concentration required to double the aPTT of pooled human plasma. The method, then:
(§1) The impacts of NSGM 25 on activated partial thromboplastin time (aPTT) and the prothrombin time (PT) of human plasma were measured employing a standard one-stage recalcification assay at 37 °C, as previously reported. CaCl2 and thromboplastin-D were used to initiate clotting in aPTT and PT assays, respectively, in the absence and presence of NSGM 25, and the time to clot was recorded accordingly.

For assay [2], the system named is human plasma. The experiment in a line: Prothrombin time (PT) clotting assay. The settings on record: concentration required to double the PT of pooled human plasma. Here is the method:
as §1

The target of assay [3] is T1, Human CatG (Homo sapiens, UniProt P08311).
T1 construct: purchased Elastin Products Company (Owensville, MO, USA)
T1 sequence (P08311 21-255): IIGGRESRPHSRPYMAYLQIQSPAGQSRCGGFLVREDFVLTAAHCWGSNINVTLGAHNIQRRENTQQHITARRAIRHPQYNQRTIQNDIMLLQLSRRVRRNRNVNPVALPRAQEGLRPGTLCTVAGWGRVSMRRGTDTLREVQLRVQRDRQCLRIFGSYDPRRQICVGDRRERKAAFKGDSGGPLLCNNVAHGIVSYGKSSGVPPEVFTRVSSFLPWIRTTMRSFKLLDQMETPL
The experiment in a line: Direct inhibition of CatG, chromogenic substrate (S-7388) hydrolysis assay, IC50 determination. To be noted: for HS (Hill slope): Hill slope of dose-response fit; for HS (Hill slope) / IC50 / ΔY (efficacy): 100 mM NaCl; for HS (Hill slope) / ΔY (efficacy): pH 7.4; for IC50: pH 7.4 tris buffer, 37 °C, 60 nM CatG, 750 µM S-7388, ± 1 S.E., read-out: IC50; for ΔY (efficacy): ΔY = YM − YO of dose-response fit; for fold difference (loss) in CatG inhibition potency relative to NSGM 25: ratio of IC50s versus 25. Here is the method:
A chromogenic substrate hydrolysis assay was used to determine the direct inhibition of CatG by the NSGMs, as previously reported. To each well of a 96-well microplate containing 88 µL of 20 mM tris buffer, containing 100 mM NaCl, 2.5 mM CaCl2, 0.1% PEG 8000, and 0.05% Tween 80, 4 µL of CatG (final concentration of 60 nM) and 5 µL of H2O or NSGM (final concentration of 0–100 µM) were added. After incubating for a period of 5 min, 3 µL of CatG substrate (S-7388, final concentration of 750 µM) was added, and the residual CatG activity was obtained from the initial rate of increase of absorbance at 405 nm. The relative residual activity of CatG for each of the NSGMs, at the various concentrations, was calculated from the ratio of CatG activity in the presence and absence of NSGMs. The dose dependence curve was plotted using a logistic equation (see below) in Sigmaplot version 12 to obtain the IC50 (potency), Hill slope (HS), and efficacy (ΔY). Here, Y is the ratio of residual CatG activity in the presence of NSGMs to that in their absence, YO and YM are the minimum and maximum values of fractional residual CatG activity, respectively, IC50 is the concentration of the NSGM that inhibits CatG activity by 50%, and HS is the Hill slope. ΔY = YM − YO. Y=YO+YM−YO/1+10^logI0−logIC50HS
Figure 4 Representative IC50 profiles for CatG inhibition by NSGMs. Direct inhibition of human CatG was measured using the chromogenic substrate hydrolysis assay at pH 7.4 and 37 °C. Solid lines represent analysis using the logistic dose–response relationship (Equation (1)) to obtain the IC50, ΔY%, and HS. Errors represent ± 1 S.E.

Molecules are shown by their SMILES.

One may read the IC50 as the concentration needed to halve the response being measured.

Regarding `CC1CNc2c(cccc2S(=O)(=O)N[C@@H](CCCNC(=N)N)C(=O)N2CC[C@@H](C)C[C@@H]2C(=O)O)C1` (some centres unmarked) [Argatroban, argatroban, reference compound], in assay [1], the “aPTT (EC2X)” value was 0.34 µM. For the same molecule, the “PT (EC2X)” value in assay [2] is 0.36 µM.
As to `O=c1c(OS(=O)(=O)O)c(-c2ccc(OS(=O)(=O)O)c(OS(=O)(=O)O)c2)oc2cc(OS(=O)(=O)O)cc(OCc3cccc(COc4cc(OS(=O)(=O)O)cc5oc(-c6ccc(OS(=O)(=O)O)c(OS(=O)(=O)O)c6)c(OS(=O)(=O)O)c(=O)c45)c3)c12` [NSGM 27], in assay [3], the “HS (Hill slope)” value is listed as 0.9 ± 0.4, the IC50 amounted to 0.15 ± 0.06 µM and the “ΔY (efficacy)” value worked out at 77 ± 10%.
On the same counts, the results for `Cc1ccc(OCCOc2cc(OS(=O)(=O)O)cc3oc(-c4ccc(OS(=O)(=O)O)cc4)cc(=O)c23)cc1` [NSGM 16] are 1.9 ± 0.3, greater than 100 µM and 115 ± 4%.
For `O=c1cc(-c2ccc(OS(=O)(=O)O)cc2)oc2cc(OS(=O)(=O)O)cc(OCc3cccc(COc4cc(OS(=O)(=O)O)cc5oc(-c6ccc(OS(=O)(=O)O)cc6)cc(=O)c45)c3)c12` [NSGM 21] the same measures were 1.3 ± 0.8, 10.3 ± 4.8 µM and 81 ± 7%.
For the molecule `O=C(NC[C@H]1CN(c2ccc(N3CCOCC3=O)cc2)C(=O)O1)c1ccc(Cl)s1` [Rivaroxaban, rivaroxaban, reference compound], the “aPTT (EC2X)” value in assay [1] is recorded as 0.12 µM. Besides, the “PT (EC2X)” value in assay [2] worked out at 0.15 µM.
As to `O=c1cc(-c2ccc(OS(=O)(=O)O)cc2)oc2cc(OS(=O)(=O)O)cc(OCC=CCOc3cc(OS(=O)(=O)O)cc4oc(-c5ccc(OS(=O)(=O)O)cc5)cc(=O)c34)c12` [NSGM 18], in assay [3], the “HS (Hill slope)” value was 1.5 ± 0.3, the half-inhibitory concentration (IC50) is 4.7 ± 0.7 µM and the “ΔY (efficacy)” value turned out to be 81 ± 7%.
On the same counts, the results for `CCOC(=O)c1c(C)oc2cc(OCc3ccccc3)c(OCCCOc3cc(OS(=O)(=O)O)cc4oc(-c5ccc(OS(=O)(=O)O)cc5)cc(=O)c34)cc12` [NSGM 30] are 2.1 ± 0.5, 18.9 ± 2.2 µM and 87 ± 5%.
`CCOC(=O)c1c(C)oc2cc(OCc3cccc(OS(=O)(=O)O)c3)c(OS(=O)(=O)O)cc12` [NSGM 2]: in assay [3], the IC50 is greater than 50 µM.
On to `O=S(=O)(O)Oc1cc2c(c(OS(=O)(=O)O)c1)CC(OS(=O)(=O)O)C(c1ccc(OS(=O)(=O)O)c(OS(=O)(=O)O)c1)O2` (centres unmarked) [NSGM 17], for which, in assay [3], the “HS (Hill slope)” value was 3.1 ± 1.3, the IC50 stood at 65 ± 13 µM and the “ΔY (efficacy)” value came out at 76 ± 7%.
With `COc1cc2oc(C)c(C(=O)OCCOS(=O)(=O)O)c2cc1OS(=O)(=O)O` [NSGM 3], the IC50 in assay [3] was greater than 50 µM.
Regarding `O=c1c(OS(=O)(=O)O)c(-c2ccc(OS(=O)(=O)O)c(OS(=O)(=O)O)c2)oc2cc(OS(=O)(=O)O)cc(OCCCOc3cc(OS(=O)(=O)O)cc4oc(-c5ccc(OS(=O)(=O)O)c(OS(=O)(=O)O)c5)c(OS(=O)(=O)O)c(=O)c34)c12` [NSGM 24], in assay [3], the “HS (Hill slope)” value came out at 1.5 ± 0.5, the IC50 amounted to 0.21 ± 0.04 µM, the “fold difference (loss) in CatG inhibition potency relative to NSGM 25” value came out at 4 fold and the “ΔY (efficacy)” value is reported as 94 ± 9%.
As to `O=c1cc(-c2ccc(OS(=O)(=O)O)cc2)oc2cc(OS(=O)(=O)O)cc(OCc3ccc(COc4cc(OS(=O)(=O)O)cc5oc(-c6ccc(OS(=O)(=O)O)cc6)cc(=O)c45)nc3)c12` [NSGM 22], in assay [3], the “HS (Hill slope)” value amounted to 1.2 ± 0.2, the IC50 is 1.3 ± 0.2 µM and the “ΔY (efficacy)” value came to 105 ± 7%.
`O=c1cc(-c2ccc(OS(=O)(=O)O)cc2)oc2cc(OS(=O)(=O)O)cc(OCc3ccc(-c4ccc(COc5cc(OS(=O)(=O)O)cc6oc(-c7ccc(OS(=O)(=O)O)cc7)cc(=O)c56)cc4)cc3)c12` [NSGM 23]: in assay [3], the “HS (Hill slope)” value came out at 4.1 ± 1.0, the IC50 amounted to 3.4 ± 0.2 µM and the “ΔY (efficacy)” value is given as 103 ± 4%.
On to `O=c1cc(-c2ccc(OS(=O)(=O)O)cc2)oc2cc(OS(=O)(=O)O)cc(OCc3ccc(COc4cc(OS(=O)(=O)O)cc5oc(-c6ccc(OS(=O)(=O)O)cc6)cc(=O)c45)cc3)c12` [NSGM 19], for which, in assay [3], the “HS (Hill slope)” value is 3.1 ± 1.0, the IC50 was 3.3 ± 0.3 µM, the “fold difference (loss) in CatG inhibition potency relative to NSGM 25” value was 66 fold and the “ΔY (efficacy)” value amounted to 82 ± 4%.
For `O=c1c(OS(=O)(=O)O)c(-c2ccc(OS(=O)(=O)O)c(OS(=O)(=O)O)c2)oc2cc(OS(=O)(=O)O)cc(OCc3ccc(COc4cc(OS(=O)(=O)O)cc5oc(-c6ccc(OS(=O)(=O)O)c(OS(=O)(=O)O)c6)c(OS(=O)(=O)O)c(=O)c45)nc3)c12` [NSGM 28], in assay [3], the “HS (Hill slope)” value was 0.9 ± 0.2, the IC50 is 0.18 ± 0.04 µM and the “ΔY (efficacy)” value is on record as 77 ± 5%.
